According to ChEMBL document CHEMBL4251634, “Synthesis and antimicrobial activity of pyrimidinyl 1,3,4-oxadiazoles, 1,3,4-thiadiazoles and 1,2,4-triazoles” (2018):
Active and inactive are the calls of the source. The calls are words filed in the database; no cut-off is given here.

Columns and labels:
Format in all cases: functional
Penicillium chrysogenum [1] = experiment: Antifungal activity against Penicillium chrysogenum assessed as diameter of inhibition zone at 25 ug/well after 48 hrs by agar well diffusion method; conditions: for zone of inhibition at 25 µg/disc: read-out: DIZ
Aspergillus niger [2] = experiment: Antifungal activity against Aspergillus niger assessed as diameter of inhibition zone at 12.5 ug/well after 48 hrs by agar well diffusion method; conditions: for zone of inhibition at 12.5 µg/disc: read-out: DIZ
Aspergillus niger [3] = experiment: Antifungal activity against Aspergillus niger assessed as diameter of inhibition zone at 25 ug/well after 48 hrs by agar well diffusion method; conditions: for zone of inhibition at 25 µg/disc: read-out: DIZ
Aspergillus niger [4] = experiment: Antifungal activity against Aspergillus niger after 48 hrs by turbidity-based broth dilution assay
Penicillium chrysogenum [5] = experiment: Antifungal activity against Penicillium chrysogenum assessed as diameter of inhibition zone at 50 ug/well after 48 hrs by agar well diffusion method; conditions: for zone of inhibition at 50 µg/disc: read-out: DIZ
Penicillium chrysogenum [6] = experiment: Antifungal activity against Penicillium chrysogenum after 48 hrs by turbidity-based broth dilution assay
Aspergillus niger [7] = experiment: Antifungal activity against Aspergillus niger assessed as diameter of inhibition zone at 50 ug/well after 48 hrs by agar well diffusion method; conditions: for zone of inhibition at 50 µg/disc: read-out: DIZ
Penicillium chrysogenum [8] = experiment: Antifungal activity against Penicillium chrysogenum assessed as diameter of inhibition zone at 100 ug/well after 48 hrs by agar well diffusion method; conditions: for zone of inhibition at 100 µg/disc: read-out: DIZ
Penicillium chrysogenum [9] = experiment: Antifungal activity against Penicillium chrysogenum assessed as diameter of inhibition zone at 12.5 ug/well after 48 hrs by agar well diffusion method; conditions: for zone of inhibition at 12.5 µg/disc: read-out: DIZ
Aspergillus niger [10] = experiment: Antifungal activity against Aspergillus niger assessed as diameter of inhibition zone at 100 ug/well after 48 hrs by agar well diffusion method; conditions: for zone of inhibition at 100 µg/disc: read-out: DIZ
Pseudomonas aeruginosa [11] = experiment: Antibacterial activity against Pseudomonas aeruginosa assessed as diameter of inhibition zone at 100 ug/well after 24 hrs by agar well diffusion method; conditions: for zone of inhibition at 100 µg/disc: read-out: DIZ
Klebsiella pneumoniae [12] = experiment: Antibacterial activity against Klebsiella pneumoniae after 24 hrs by turbidity-based broth dilution assay
Staphylococcus aureus [13] = experiment: Antibacterial activity against Staphylococcus aureus assessed as diameter of inhibition zone at 25 ug/well after 24 hrs by agar well diffusion method; conditions: for zone of inhibition at 25 µg/disc: read-out: DIZ
Staphylococcus aureus [14] = experiment: Antibacterial activity against Staphylococcus aureus assessed as diameter of inhibition zone at 12.5 ug/well after 24 hrs by agar well diffusion method; conditions: for zone of inhibition at 12.5 µg/disc: read-out: DIZ
Staphylococcus aureus [15] = experiment: Antibacterial activity against Staphylococcus aureus assessed as diameter of inhibition zone at 100 ug/well after 24 hrs by agar well diffusion method; conditions: for zone of inhibition at 100 µg/disc: read-out: DIZ
Bacillus subtilis [16] = experiment: Antibacterial activity against Bacillus subtilis assessed as diameter of inhibition zone at 12.5 ug/well after 24 hrs by agar well diffusion method; conditions: for zone of inhibition at 12.5 µg/disc: read-out: DIZ
Klebsiella pneumoniae [17] = experiment: Antibacterial activity against Klebsiella pneumoniae assessed as diameter of inhibition zone at 12.5 ug/well after 24 hrs by agar well diffusion method; conditions: for zone of inhibition at 12.5 µg/disc: read-out: DIZ
Pseudomonas aeruginosa [18] = experiment: Antibacterial activity against Pseudomonas aeruginosa assessed as diameter of inhibition zone at 25 ug/well after 24 hrs by agar well diffusion method; conditions: for zone of inhibition at 25 µg/disc: read-out: DIZ
Klebsiella pneumoniae [19] = experiment: Antibacterial activity against Klebsiella pneumoniae assessed as diameter of inhibition zone at 50 ug/well after 24 hrs by agar well diffusion method; conditions: for zone of inhibition at 50 µg/disc: read-out: DIZ
Klebsiella pneumoniae [20] = experiment: Antibacterial activity against Klebsiella pneumoniae assessed as diameter of inhibition zone at 100 ug/well after 24 hrs by agar well diffusion method; conditions: for zone of inhibition at 100 µg/disc: read-out: DIZ
Staphylococcus aureus [21] = experiment: Antibacterial activity against Staphylococcus aureus after 24 hrs by turbidity-based broth dilution assay
Bacillus subtilis [22] = experiment: Antibacterial activity against Bacillus subtilis assessed as diameter of inhibition zone at 25 ug/well after 24 hrs by agar well diffusion method; conditions: for zone of inhibition at 25 µg/disc: read-out: DIZ
Pseudomonas aeruginosa [23] = experiment: Antibacterial activity against Pseudomonas aeruginosa after 24 hrs by turbidity-based broth dilution assay
Staphylococcus aureus [24] = experiment: Antibacterial activity against Staphylococcus aureus assessed as diameter of inhibition zone at 50 ug/well after 24 hrs by agar well diffusion method; conditions: for zone of inhibition at 50 µg/disc: read-out: DIZ
Bacillus subtilis [25] = experiment: Antibacterial activity against Bacillus subtilis assessed as diameter of inhibition zone at 50 ug/well after 24 hrs by agar well diffusion method; conditions: for zone of inhibition at 50 µg/disc: read-out: DIZ
Bacillus subtilis [26] = experiment: Antibacterial activity against Bacillus subtilis assessed as diameter of inhibition zone at 100 ug/well after 24 hrs by agar well diffusion method; conditions: for zone of inhibition at 100 µg/disc: read-out: DIZ
Klebsiella pneumoniae [27] = experiment: Antibacterial activity against Klebsiella pneumoniae assessed as diameter of inhibition zone at 25 ug/well after 24 hrs by agar well diffusion method; conditions: for zone of inhibition at 25 µg/disc: read-out: DIZ
Pseudomonas aeruginosa [28] = experiment: Antibacterial activity against Pseudomonas aeruginosa assessed as diameter of inhibition zone at 12.5 ug/well after 24 hrs by agar well diffusion method; conditions: for zone of inhibition at 12.5 µg/disc: read-out: DIZ
Pseudomonas aeruginosa [29] = experiment: Antibacterial activity against Pseudomonas aeruginosa assessed as diameter of inhibition zone at 50 ug/well after 24 hrs by agar well diffusion method; conditions: for zone of inhibition at 50 µg/disc: read-out: DIZ

## CC(=O)N1CCN(c2ccc(OCC3COC(Cn4ccnc4)(c4ccc(Cl)cc4Cl)O3)cc2)CC1 (configuration not stated) [KETOCONAZOLE]
Penicillium chrysogenum [1]
  zone of inhibition at 25 µg/disc: 36 mm
Aspergillus niger [2]
  zone of inhibition at 12.5 µg/disc: 29 mm
Aspergillus niger [3]
  zone of inhibition at 25 µg/disc: 31 mm
Aspergillus niger [4]
  MIC: 6.25 µg
Penicillium chrysogenum [5]
  zone of inhibition at 50 µg/disc: 37 mm
Penicillium chrysogenum [6]
  MIC: 12.5 µg
Aspergillus niger [7]
  zone of inhibition at 50 µg/disc: 34 mm
Penicillium chrysogenum [8]
  zone of inhibition at 100 µg/disc: 39 mm
Penicillium chrysogenum [9]
  zone of inhibition at 12.5 µg/disc: 34 mm
Aspergillus niger [10]
  zone of inhibition at 100 µg/disc: 37 mm

## O=C(N[C@H](CO)[C@H](O)c1ccc([N+](=O)[O-])cc1)C(Cl)Cl [CHLORAMPHENICOL]
Pseudomonas aeruginosa [11]
  zone of inhibition at 100 µg/disc: 32 mm
Klebsiella pneumoniae [12]
  MIC: 12.5 µg
Staphylococcus aureus [13]
  zone of inhibition at 25 µg/disc: 32 mm
Staphylococcus aureus [14]
  zone of inhibition at 12.5 µg/disc: 30 mm
Staphylococcus aureus [15]
  zone of inhibition at 100 µg/disc: 37 mm
Bacillus subtilis [16]
  zone of inhibition at 12.5 µg/disc: 32 mm
Klebsiella pneumoniae [17]
  zone of inhibition at 12.5 µg/disc: 38 mm
Pseudomonas aeruginosa [18]
  zone of inhibition at 25 µg/disc: 27 mm
Klebsiella pneumoniae [19]
  zone of inhibition at 50 µg/disc: 42 mm
Klebsiella pneumoniae [20]
  zone of inhibition at 100 µg/disc: 44 mm
Staphylococcus aureus [21]
  MIC: 6.25 µg
Bacillus subtilis [22]
  zone of inhibition at 25 µg/disc: 34 mm
Pseudomonas aeruginosa [23]
  MIC: 6.25 µg
Staphylococcus aureus [24]
  zone of inhibition at 50 µg/disc: 35 mm
Bacillus subtilis [25]
  zone of inhibition at 50 µg/disc: 36 mm
Bacillus subtilis [26]
  zone of inhibition at 100 µg/disc: 40 mm
Klebsiella pneumoniae [27]
  zone of inhibition at 25 µg/disc: 40 mm
Pseudomonas aeruginosa [28]
  zone of inhibition at 12.5 µg/disc: 25 mm
Pseudomonas aeruginosa [29]
  zone of inhibition at 50 µg/disc: 29 mm

## COc1ccc(-c2nnc(CSc3cc(C)nc(SCc4nnc(-c5ccc(OC)cc5)o4)n3)o2)cc1
Penicillium chrysogenum [1]
  diameter of the inhibition zone (DIZ): inactive
Pseudomonas aeruginosa [11]
  diameter of the inhibition zone (DIZ): inactive
Staphylococcus aureus [13]
  diameter of the inhibition zone (DIZ): inactive
Staphylococcus aureus [14]
  diameter of the inhibition zone (DIZ): inactive
Staphylococcus aureus [15]
  diameter of the inhibition zone (DIZ): inactive
Aspergillus niger [2]
  diameter of the inhibition zone (DIZ): inactive
Bacillus subtilis [16]
  diameter of the inhibition zone (DIZ): inactive
Klebsiella pneumoniae [17]
  diameter of the inhibition zone (DIZ): inactive
Aspergillus niger [3]
  diameter of the inhibition zone (DIZ): inactive
Pseudomonas aeruginosa [18]
  diameter of the inhibition zone (DIZ): inactive
Klebsiella pneumoniae [19]
  diameter of the inhibition zone (DIZ): inactive
Klebsiella pneumoniae [20]
  diameter of the inhibition zone (DIZ): inactive
Penicillium chrysogenum [5]
  diameter of the inhibition zone (DIZ): inactive
Bacillus subtilis [22]
  diameter of the inhibition zone (DIZ): inactive
Aspergillus niger [7]
  diameter of the inhibition zone (DIZ): inactive
Penicillium chrysogenum [8]
  diameter of the inhibition zone (DIZ): inactive
Staphylococcus aureus [24]
  diameter of the inhibition zone (DIZ): inactive
Penicillium chrysogenum [9]
  diameter of the inhibition zone (DIZ): inactive
Bacillus subtilis [25]
  diameter of the inhibition zone (DIZ): inactive
Aspergillus niger [10]
  diameter of the inhibition zone (DIZ): inactive
Bacillus subtilis [26]
  diameter of the inhibition zone (DIZ): inactive
Klebsiella pneumoniae [27]
  diameter of the inhibition zone (DIZ): inactive
Pseudomonas aeruginosa [28]
  diameter of the inhibition zone (DIZ): inactive
Pseudomonas aeruginosa [29]
  diameter of the inhibition zone (DIZ): inactive

## Cc1cc(SCc2nnc(-c3ccccc3)n2N)nc(SCc2nnc(-c3ccccc3)n2N)n1
Penicillium chrysogenum [1]
  zone of inhibition at 25 µg/disc: 12 mm
Pseudomonas aeruginosa [11]
  zone of inhibition at 100 µg/disc: 23 mm
Staphylococcus aureus [13]
  zone of inhibition at 25 µg/disc: 9 mm
Staphylococcus aureus [14]
  zone of inhibition at 12.5 µg/disc: 8 mm
Staphylococcus aureus [15]
  zone of inhibition at 100 µg/disc: 12 mm
Aspergillus niger [2]
  zone of inhibition at 12.5 µg/disc: 17 mm
Bacillus subtilis [16]
  zone of inhibition at 12.5 µg/disc: 10 mm
Klebsiella pneumoniae [17]
  zone of inhibition at 12.5 µg/disc: 17 mm
Aspergillus niger [3]
  zone of inhibition at 25 µg/disc: 19 mm
Pseudomonas aeruginosa [18]
  zone of inhibition at 25 µg/disc: 16 mm
Klebsiella pneumoniae [19]
  zone of inhibition at 50 µg/disc: 22 mm
Klebsiella pneumoniae [20]
  zone of inhibition at 100 µg/disc: 24 mm
Penicillium chrysogenum [5]
  zone of inhibition at 50 µg/disc: 14 mm
Bacillus subtilis [22]
  zone of inhibition at 25 µg/disc: 12 mm
Aspergillus niger [7]
  zone of inhibition at 50 µg/disc: 21 mm
Penicillium chrysogenum [8]
  zone of inhibition at 100 µg/disc: 16 mm
Staphylococcus aureus [24]
  zone of inhibition at 50 µg/disc: 10 mm
Penicillium chrysogenum [9]
  zone of inhibition at 12.5 µg/disc: 11 mm
Bacillus subtilis [25]
  zone of inhibition at 50 µg/disc: 14 mm
Aspergillus niger [10]
  zone of inhibition at 100 µg/disc: 24 mm
Bacillus subtilis [26]
  zone of inhibition at 100 µg/disc: 17 mm
Klebsiella pneumoniae [27]
  zone of inhibition at 25 µg/disc: 19 mm
Pseudomonas aeruginosa [28]
  zone of inhibition at 12.5 µg/disc: 14 mm
Pseudomonas aeruginosa [29]
  zone of inhibition at 50 µg/disc: 19 mm
